Measured values from patent publication US20100311841A1, “SYNTHETIC SPHINGOLIPID ANALOGS” (priority 2007, published 2010).

System: TSU-PR1 cells
Experiment: TSU-PR1 tumor xenograft in whole-body-irradiated BALB/NUDE mice
Type: in vivo
Conditions: BALB/NUDE mice irradiated with 400 cGy, s.c. TSU-PR1 tumors; AD-2813 20 mg/kg in cremophor s.c. daily close to tumor; after about 10 days of treatment; compared to control and cremophor groups (FIG. 1)
Procedure: BALB/NUDE mice were whole body irradiated with 400 cGy, 10 days later they were injected s.c. with 3.5*10e6 TSU-PR1 cells/mouse which are commonly considered as prostate carcinoma cells but recently are also considered by some as bladder carcinoma cells. Eight days later, tumors were formed, and mice were separated into 3 groups: Group 1: a control without any injection. Group 2: were injected s.c. with vehicle (cremophor) Group 3: were treated s.c. daily with AD-2813 (20 mg/kg in cremophor) close to tumor. […] The drastic change in tumor volume is pronounced particularly when compared to the control and treatment with cremophor groups.

CCCCCCCCCCCCCCNC(CO)C(O)c1ccc(SC)cc1.Cl (stereo not shown) [AD-2813]
tumor volume: significant decrease in tumor volume
